Entries after “also recorded” stand apart in the source; their conditions may differ.
Legend:
[1] = system: Tg(kdrl:GFP) zebrafish embryos; test: Caudal vein plexus (CVP) formation / venous angiogenesis in Tg(kdrl:GFP) zebrafish embryos; format: in vivo
Excerpt: Images of GFP expression in Tg(kdrl:GFP) embryos were acquired using a Zeiss SV-11 epifluorescence microscope. Confocal images were acquired using a Carl Zeiss Laser Scanning Systems LSM510 equipped with 20× air, 20× water or 40× water immersion objectives. For single time point confocal images, embryos were anesthetized with 0.01% tricaine and embedded in 1% agarose. When capturing time-lapse confocal movies, embryos were mounted in 3.5% methylcellulose (Sigma-Aldrich) and imaged for 5 hrs on a heated stage at 28.5° C. The images obtained were analyzed using the Zeiss LSM Image Brower version 4 and Image J.
A synthetic chemical library containing 168 compounds (Castellano et al., 2007) and 300 chemicals from Biomol International LP, consisting of 72 ion channel inhibitors (Cat No. 2805), 84 kinase/phosphatase inhibitors (Cat No. 2831), 84 orphan ligands (Cat No. 2825), and 60 endocannabinoids (Cat No. 2801) were screened. The synthetic small molecules were prepared through nucleophilic phosphine catalysis of allenoates (Zhu et al., 2003). Four Tg(kdrl:GFP) embryos were placed into each well of 96-well plates containing a 10 μM solution of each chemical compound dissolved in embryo buffer with 0.1% DMSO. The embryos were raised at 28.5° C. and examined for defects in blood vessel development at 1 and 2 days after treatment. Standard parameters such as numbers of somites and head to body angle were used to determine the stages of zebrafish embryos (Kimmel et al., 1995).
(§1) Aplexone treatment described in this study was carried out at a concentration of 10 μM starting at 10 hpf unless otherwise specified.
8 ng tnnt2 MO (Gene Tools) (Sehnert et al., 2002), 3 nl of 4 mM GGTI-2133 (Calbiochem), 3 nl of 5 mM L744,832 (Calbiochem) and 1 nl of 2M mevalonate (Sigma-Aldrich) were injected into 1-2 cell stage embryos.
The library of 168 compounds^24 prepared through the nucleophilic phosphine catalysis of allenes were screened using Tg(kdrl:GFP) zebrafish. Four embryos were placed in each well of 96-well plates containing a 10 uM solution of each chemical compound dissolved in embryo buffer with 0.1% DMSO. The embryos were raised at 28.5° C. and defects in blood vessel development were examined at 1 and 2 days after fertilization.

HUAECs = test: Wound healing assay, HUAECs; format: cell-based, human
Protocol: (§2) HUVECs and HUAECs were purchased from VEC Technologies. Cells were cultured on 0.1% Gelatin-coated dishes in Medium 199 (Mediatech), supplemented with 15% Fetal Bovine Serum (ATCC), 48 μg/mL Endothelial Cell Growth Supplement (BD Biosciences), 64 μg/mL Heparin Sulfate (Sigma-Aldrich), 0.9 mM Sodium Pyruvate (Mediatech), 100 IU/ml Penicillin (Mediatech), and 100 μg/ml Streptomycin (Mediatech).
(§3) For the wound healing assay, cells were cultured in 24-well plates to confluence before being subjected to a 2-hour pre-treatment with either DMSO, aplexone, Rockout (Calbiochem) or NSC 23766 (TOCRIS Bioscience). After the pre-treatment, the monolayer of endothelial cells was scratched and the closure of the wound was measured after 8 hr. The images of wounds were taken at 0 and 8 hr after scratching and the area of the wound was measured using Image J. The migration distance (the width of the wound) was calculated by dividing the area by the length of the wound. Cells below passage seven were used in this study.

zebrafish embryos = test: Overall phenotype of treated zebrafish embryos (body shape, circulation); format: in vivo
Protocol: A,B,C, Overall phenotype of control and aplexone-treated embryos at 30 hpf. A′,B′,C′, Vasculature in trunk. […] D-E, Germ cells in control and aplexone treated embryos at 24 hpf were detected by in situ hybridization using the nanos probe. F, The percentage of embryos with ectopic primordial germ cells in control (n=26), 5 μM (n=13), and 10 μM (n=14) aplexone-treated embryos. […] I, The percentage of embryos with cardia bifida in control (n=16) and 10 μM-(n=17), 20 μM-(n=17) and 30 μM-(n=18) aplexone-treated embryos.
as §1

HMGCR pathway = test: Cholesterol assay in embryo lysate (Amplex Red); format: in vivo, zebrafish
Protocol: The yolk was removed from embryos by vortexing in calcium-free Ringer's solution with 1 mM EDTA at 4° C. The embryos were then pelleted and washed with fresh calcium free Ringer's solution 5 times before being resuspended in cholesterol assay reaction buffer and were then lysed by sonication using a Sonifier 450 (Branson). Cholesterol levels in the embryo lysate were measured with an Amplex Red Cholesterol Assay Kit (Invitrogen) and Flex station II (Bucher Biotec). The total protein concentration of the embryo lysate was measured using a DC protein assay (Bio-Rad Laboratories) and SpectraMax plus (Molecular Devices).

[2] = system: ephrinB2a, ephB4 and flt4; test: In situ hybridization for arterial and venous markers; format: in vivo, zebrafish; details: 10 μM from 10 hpf, fixed at 24 hpf
Protocol: Untreated control embryos (A, C, E and A′, C′, E′) and embryos treated with 10 μM aplexone beginning at 10 hpf (B, D, F and B′, D′, F′) were fixed at 24 hpf. Arterial and venous fates were analyzed by in situ hybridization using ephrinB2a (A,A′,B,B′), ephB4 (C,C′,D,D′) and flt4 (E,E′,F,F′) probes. Arrowhead, dorsal aorta. Embryos were analyzed at higher magnification in the trunk in A′-F′, with regions of interest indicated by black boxes in A-F. Arrow, posterior cardinal vein.
To understand whether angiogenesis from arterial and venous ECs are under different genetic controls we screened a collection of small molecules for compounds that preferentially suppress angiogenesis from exclusively one cell type. In this screen, we used the primary ISV sprouts as the readout for arterial-derived angiogenesis, and the CVP and secondary ISV sprouts as indicators of venous-derived angiogenesis. We found one synthetic compound, aplexone, which has a lineage-dependent effect on angiogenesis. The spatial and temporal development of primary ISVs in the trunk is indistinguishable between 2-day-old control and aplexone-treated embryos (FIG. 1L-M′). […] Secondary ISVs are also absent in these embryos (FIG. 1L-M′).

HUVECs = test: Wound healing assay, HUVECs; format: cell-based, human
Protocol: as §2, §3

In the case of `CC(=O)C1=CCC(c2ccccc2)N(S(=O)(=O)c2ccc(C)cc2)C1` (centres unmarked) [aplexone], the “CVP formation at suboptimal level” value ([1]; 2 μM single agent) was “normal CVP”, the “formation of the CVP” value ([1]; 10 μM aplexone from 10 hpf) was “severely defective” and the “secondary ISVs (venous-derived sprouts)” value ([1]; 10 μM from 10 hpf, 2-day-old embryos) was “absent”. The HUAEC migration (HUAECs; 5 μM aplexone, 8 hr) was “unaffected”, the “impediment in HUAEC migration” value (HUAECs; 10 μM aplexone, p<0.05) was 10% and the body shape (zebrafish embryos; 10 μM aplexone) was “relatively normal body shape”. The embryo length (zebrafish embryos; 30 μM aplexone) was “shorter than control embryos”, the blood circulation (zebrafish embryos; aplexone-treated embryos) was “lack blood circulation” and the “efficiency of cholesterol reduction compared with atorvastatin” value (HMGCR pathway; higher concentration (40 uL)) was “more efficient”. The “efficiency of cholesterol reduction compared with atorvastatin” value (HMGCR pathway; lower concentration (10 uL)) was “as efficient as atorvastatin”, the embryonic cholesterol levels (HMGCR pathway; relative to 0.4% DMSO control) was “reduced embryonic cholesterol levels to a comparable degree as treatment with atorvastatin; also recorded: reduce cholesterol level significantly” and the “arterial (ephrin B2a) and venous (flt4, ephB4) marker expression” value [2] was “could not distinguish aplexone-treated embryos from control embryos”. For the same compound, the “migration of HUVECs” value (HUVECs; 5 μM aplexone) was “sufficient to impede the migration of HUVECs” and the “migration of HUVECs” value (HUVECs; various aplexone concentrations, 8 hr after wound) was “inhibited”.

— patent publication US9084782B2, “Chemical inhibitors of cholesterol biosynthesis and venous angiogenesis” (The Regents of the University of California, priority 2011, dated 2015)
